Data taken from ChEMBL document CHEMBL3885861, “Open TG-GATES”.

Species on record: Rattus norvegicus
Assay: Open TG-GATES - Regimen: Daily Repeat
Assay type: toxicity, organism-based, Sprague-Dawley
Set-up: regimen Daily Repeat, gender Male, age 6 weeks
Settings: in vivo, po, route gavage; for gamma-GTP / ALP / AST / BUN / CRE / Ca / Cl / DBIL / GLC / IP / K / LDH / Na / PL / RALB / TBIL / TC / TG / TP: tissue Plasma; for APTT / Bas / Eos / Fbg / Hb / Ht / Lym / MCH / MCHC / MCV / Mono / Neu / PT / Plat / RBC / Ret / WBC: tissue Blood; for KIDNEY_L / KIDNEY_R / KIDNEY_TOTAL: tissue Kidney; for LIVER: tissue Liver
[1] = 100 mg/kg, 72 h, dose level Low, time 3 day
[2] = 100 mg/kg, […], dose level Low, time 7 day
[3] = 100 mg/kg, […], dose level Low, time 14 day
[4] = 100 mg/kg, […], dose level Low, time 28 day

Question: With `COc1ccc2[nH]c([S+]([O-])Cc3ncc(C)c(OC)c3C)nc2c1` (centres undefined) [OMEPRAZOLE] as the molecule, how does the gamma-GTP (0 mg/kg, […], dose level Control, time 28 day) read?
Answer: 0.8 IU/L

Question: What about the TERMINAL_BW [1] of the same molecule?
Answer: 240.6 g

Question: What about the APTT [1] of the same molecule?
Answer: 19 s

Question: What about the Bas [1] of the same molecule?
Answer: 0%

Question: And the Eos [1]?
Answer: 1%

Question: And the Fbg [1]?
Answer: 214.2 mg/dL

Question: And the Hb [1]?
Answer: 13.1 g/dL

Question: And the Ht [1]?
Answer: 38.3%

Question: What about the Lym [1] of the same molecule?
Answer: 77%

Question: And the MCH [1]?
Answer: 21 pg

Question: What about the MCHC [1] of the same molecule?
Answer: 34.2%

Question: And the MCV [1]?
Answer: 61.4 fL

Question: What about the Mono [1] of the same molecule?
Answer: 3.4%

Question: What about the Neu [1] of the same molecule?
Answer: 18.6%

Question: What about the PT [1] of the same molecule?
Answer: 12.3 s

Question: And the Plat [1]?
Answer: 127.7 x10_4/uL

Question: And the RBC [1]?
Answer: 624 x10_4/ul

Question: And the Ret [1]?
Answer: 5.2%

Question: And the WBC [1]?
Answer: 119.7 x10_2/uL

Question: And the KIDNEY_L [1]?
Answer: 1.1 g

Question: What about the KIDNEY_R [1] of the same molecule?
Answer: 1.1 g

Question: And the KIDNEY_TOTAL [1]?
Answer: 2.2 g

Question: What about the LIVER [1] of the same molecule?
Answer: 12.4 g

Question: What about the ALP [1] of the same molecule?
Answer: 887.8 IU/L

Question: What about the AST [1] of the same molecule?
Answer: 67.8 IU/L

Question: What about the BUN [1] of the same molecule?
Answer: 15.2 mg/dL

Question: And the CRE [1]?
Answer: 0.3 mg/dL

Question: What about the Ca [1] of the same molecule?
Answer: 10.6 mg/dL

Question: And the Cl [1]?
Answer: 101.8 meq/L

Question: And the DBIL [1]?
Answer: 0.08 mg/dL

Question: And the GLC [1]?
Answer: 220.6 mg/dL

Question: And the IP [1]?
Answer: 8.8 mg/dL

Question: And the K [1]?
Answer: 3.8 meq/L

Question: What about the LDH [1] of the same molecule?
Answer: 157.2 IU/L

Question: And the Na [1]?
Answer: 141.4 meq/L

Question: And the PL [1]?
Answer: 145 mg/dL

Question: What about the RALB [1] of the same molecule?
Answer: 3.4 g/dL

Question: And the TBIL [1]?
Answer: 0.1 mg/dL

Question: And the TC [1]?
Answer: 72.6 mg/dL

Question: What about the TG [1] of the same molecule?
Answer: 99.2 mg/dL

Question: What about the TP [1] of the same molecule?
Answer: 5.6 g/dL

Question: And the gamma-GTP [1]?
Answer: 1.2 IU/L

Question: What about the TERMINAL_BW [2] of the same molecule?
Answer: 271.5 g

Question: What about the TERMINAL_BW [3] of the same molecule?
Answer: 323 g

Question: And the TERMINAL_BW [4]?
Answer: 390.5 g

Question: What about the APTT [2] of the same molecule?
Answer: 20 s

Question: And the Bas [2]?
Answer: 0%

Question: And the Eos [2]?
Answer: 1%

Question: And the Fbg [2]?
Answer: 221 mg/dL

Question: What about the Hb [2] of the same molecule?
Answer: 13.5 g/dL

Question: What about the Ht [2] of the same molecule?
Answer: 39.5%

Question: What about the Lym [2] of the same molecule?
Answer: 82%

Question: And the MCH [2]?
Answer: 20.7 pg

Question: What about the MCHC [2] of the same molecule?
Answer: 34.2%

Question: And the MCV [2]?
Answer: 60.6 fL

Question: What about the Mono [2] of the same molecule?
Answer: 3.4%

Question: What about the Neu [2] of the same molecule?
Answer: 13.2%

Question: And the PT [2]?
Answer: 12.2 s

Question: And the Plat [2]?
Answer: 132.7 x10_4/uL

Question: What about the RBC [2] of the same molecule?
Answer: 652 x10_4/ul

Question: What about the Ret [2] of the same molecule?
Answer: 4.7%

Question: What about the WBC [2] of the same molecule?
Answer: 114.9 x10_2/uL

Question: What about the APTT [3] of the same molecule?
Answer: 20.2 s

Question: And the Bas [3]?
Answer: 0%

Question: What about the Eos [3] of the same molecule?
Answer: 0.8%

Question: And the Fbg [3]?
Answer: 208.4 mg/dL

Question: And the Hb [3]?
Answer: 14.2 g/dL

Question: And the Ht [3]?
Answer: 40.8%

Question: What about the Lym [3] of the same molecule?
Answer: 82.8%

Question: And the MCH [3]?
Answer: 20.5 pg

Question: And the MCHC [3]?
Answer: 34.7%

Question: And the MCV [3]?
Answer: 59.1 fL

Question: And the Mono [3]?
Answer: 2.2%

Question: What about the Neu [3] of the same molecule?
Answer: 13.6%

Question: What about the PT [3] of the same molecule?
Answer: 12.1 s

Question: What about the Plat [3] of the same molecule?
Answer: 133 x10_4/uL

Question: And the RBC [3]?
Answer: 691 x10_4/ul

Question: What about the Ret [3] of the same molecule?
Answer: 4.1%

Question: What about the WBC [3] of the same molecule?
Answer: 101.4 x10_2/uL

Question: And the APTT [4]?
Answer: 21.2 s

Question: And the Bas [4]?
Answer: 0%

Question: What about the Eos [4] of the same molecule?
Answer: 1.2%

Question: And the Fbg [4]?
Answer: 210.4 mg/dL

Question: What about the Hb [4] of the same molecule?
Answer: 15.1 g/dL

Question: And the Ht [4]?
Answer: 43.9%

Question: And the Lym [4]?
Answer: 79.6%

Question: And the MCH [4]?
Answer: 18.6 pg

Question: What about the MCHC [4] of the same molecule?
Answer: 34.3%

Question: What about the MCV [4] of the same molecule?
Answer: 54.3 fL

Question: And the Mono [4]?
Answer: 2.2%

Question: And the Neu [4]?
Answer: 16.6%

Question: What about the PT [4] of the same molecule?
Answer: 12.3 s

Question: What about the Plat [4] of the same molecule?
Answer: 106.5 x10_4/uL

Question: What about the RBC [4] of the same molecule?
Answer: 809.8 x10_4/ul

Question: And the Ret [4]?
Answer: 2.6%

Question: What about the WBC [4] of the same molecule?
Answer: 100.5 x10_2/uL

Question: And the KIDNEY_L [2]?
Answer: 1.1 g

Question: What about the KIDNEY_R [2] of the same molecule?
Answer: 1.1 g

Question: And the KIDNEY_TOTAL [2]?
Answer: 2.2 g

Question: And the KIDNEY_L [3]?
Answer: 1.3 g

Question: What about the KIDNEY_R [3] of the same molecule?
Answer: 1.3 g

Question: And the KIDNEY_TOTAL [3]?
Answer: 2.5 g

Question: What about the KIDNEY_L [4] of the same molecule?
Answer: 1.4 g

Question: What about the KIDNEY_R [4] of the same molecule?
Answer: 1.3 g

Question: What about the KIDNEY_TOTAL [4] of the same molecule?
Answer: 2.7 g

Question: What about the LIVER [2] of the same molecule?
Answer: 13.3 g

Question: And the LIVER [3]?
Answer: 14.7 g

Question: What about the LIVER [4] of the same molecule?
Answer: 16.4 g

Question: What about the ALP [2] of the same molecule?
Answer: 805 IU/L

Question: And the AST [2]?
Answer: 65 IU/L

Question: And the BUN [2]?
Answer: 15.6 mg/dL

Question: What about the CRE [2] of the same molecule?
Answer: 0.4 mg/dL

Question: And the Ca [2]?
Answer: 10.6 mg/dL

Question: What about the Cl [2] of the same molecule?
Answer: 101.4 meq/L

Question: What about the DBIL [2] of the same molecule?
Answer: 0.066 mg/dL

Question: What about the GLC [2] of the same molecule?
Answer: 200.4 mg/dL

Question: And the IP [2]?
Answer: 8.3 mg/dL

Question: What about the K [2] of the same molecule?
Answer: 4 meq/L

Question: What about the LDH [2] of the same molecule?
Answer: 229.6 IU/L

Question: And the Na [2]?
Answer: 140.8 meq/L

Question: What about the PL [2] of the same molecule?
Answer: 150 mg/dL

Question: What about the RALB [2] of the same molecule?
Answer: 3.4 g/dL

Question: What about the TBIL [2] of the same molecule?
Answer: 0.1 mg/dL

Question: What about the TC [2] of the same molecule?
Answer: 77.8 mg/dL

Question: And the TG [2]?
Answer: 85.2 mg/dL

Question: What about the TP [2] of the same molecule?
Answer: 5.7 g/dL

Question: What about the gamma-GTP [2] of the same molecule?
Answer: 0.8 IU/L

Question: And the ALP [3]?
Answer: 771.6 IU/L

Question: What about the AST [3] of the same molecule?
Answer: 66.4 IU/L

Question: What about the BUN [3] of the same molecule?
Answer: 15.8 mg/dL

Question: And the CRE [3]?
Answer: 0.5 mg/dL

Question: And the Ca [3]?
Answer: 10.3 mg/dL

Question: And the Cl [3]?
Answer: 101.4 meq/L

Question: What about the DBIL [3] of the same molecule?
Answer: 0.074 mg/dL

Question: What about the GLC [3] of the same molecule?
Answer: 210.8 mg/dL

Question: What about the IP [3] of the same molecule?
Answer: 7.9 mg/dL

Question: What about the K [3] of the same molecule?
Answer: 3.7 meq/L

Question: What about the LDH [3] of the same molecule?
Answer: 198.2 IU/L

Question: And the Na [3]?
Answer: 140.6 meq/L

Question: What about the PL [3] of the same molecule?
Answer: 145.8 mg/dL

Question: What about the RALB [3] of the same molecule?
Answer: 3.4 g/dL

Question: And the TBIL [3]?
Answer: 0.1 mg/dL

Question: And the TC [3]?
Answer: 73.4 mg/dL

Question: And the TG [3]?
Answer: 96.8 mg/dL

Question: What about the TP [3] of the same molecule?
Answer: 5.8 g/dL

Question: What about the gamma-GTP [3] of the same molecule?
Answer: 1 IU/L

Question: And the ALP [4]?
Answer: 538.6 IU/L

Question: And the AST [4]?
Answer: 59.2 IU/L

Question: And the BUN [4]?
Answer: 15.4 mg/dL

Question: What about the CRE [4] of the same molecule?
Answer: 0.5 mg/dL

Question: And the Ca [4]?
Answer: 10.5 mg/dL

Question: And the Cl [4]?
Answer: 101.4 meq/L

Question: And the DBIL [4]?
Answer: 0.088 mg/dL

Question: And the GLC [4]?
Answer: 220 mg/dL

Question: And the IP [4]?
Answer: 7.3 mg/dL

Question: And the K [4]?
Answer: 3.6 meq/L

Question: What about the LDH [4] of the same molecule?
Answer: 174.8 IU/L

Question: And the Na [4]?
Answer: 141.8 meq/L

Question: And the PL [4]?
Answer: 141 mg/dL

Question: What about the RALB [4] of the same molecule?
Answer: 3.6 g/dL

Question: What about the TBIL [4] of the same molecule?
Answer: 0.1 mg/dL

Question: And the TC [4]?
Answer: 69.2 mg/dL

Question: And the TG [4]?
Answer: 133 mg/dL

Question: And the TP [4]?
Answer: 6.2 g/dL
